Source: patent publication US3957996A (priority 1973, dated 1976)
“And” between values parts separate entries of the source, which are not always exact repeats. Equal entries are not always repeated. Where two headings read alike, the source gives them in different places.

How the values were obtained:
[1] = test system: outward potassium current; conditions: voltage-clamped giant axon; cited from earlier work
rat sciatic nerve = type: in vivo, Female Charles River rats
[2] = test system: inward initial sodium current; conditions: voltage-clamped giant axon; cited from earlier work
[3] = test system: peridural space / spinal roots of dogs (digital pain, scrotal pain, weight support); type: in vivo, Mature male beagles
[4] = test system: sheep (anal, vulv.-scrotal and digital pain); type: in vivo; conditions: Compound C alone 1%
[5] = 1:100,000 epinephrine, procaine 1%, saxitoxin 1 μg/ml
[6] = local anesthetic alone: lidocaine 2.0%, dibucaine 0.125%, procaine 2.0%, no epinephrine
[7] = local anesthetic alone: lidocaine 2.0%, dibucaine 0.125%, procaine 2.0%, no epinephrine, approximate
[8] = compound alone 1.0%, no vasoconstrictor
[9] = compound alone 0.5%, no vasoconstrictor
[10] = local anesthetic alone 0.25%, no vasoconstrictor
[11] = 5 ml, epinephrine 1:100,000, lidocaine 2%
[12] = 5 ml, epinephrine 1:100,000, lidocaine 2%, saxitoxin 4 μg/ml
[13] = alone: S 0.75%, T 1%, bupivicaine 0.5%, epinephrine 1:100,000, 5 ml

CCN(CC)CCOC(=O)c1ccc(N)cc1 [Procaine, procaine]
Effect on outward potassium current (in words) [1]: reduce | Duration, mean ± standard deviation (rat sciatic nerve; [5]): 104 ± 15 min | Frequency (rat sciatic nerve; [5]): 100% | Onset (rat sciatic nerve; [5]): 2 min | Duration of complete block, mean ± standard deviation (rat sciatic nerve; [6]): 99 ± 8 min | Frequency of complete block (C) (rat sciatic nerve; [6]): 5/5 | Onset (rat sciatic nerve; [7]): 1 min | Effect on inward (initial) sodium current (in words) [2]: reduce

Cc1cccc(C)c1NC(=O)CNC1CCC1 [Compound K, 2-Cyclobutylamino-2',6'-acetoxylidide]
Frequency (rat sciatic nerve; [8]): 6/6

Cc1cccc(C)c1NC(=O)C(C)N (stereo not shown) [Q, 2-Amino-2',6'-propionoxylidide]
Frequency (rat sciatic nerve; [9]): 4/6 | Duration, mean ± S.D. (rat sciatic nerve; [8]): 79 ± 19 min | Frequency (rat sciatic nerve; [8]): 5/6

CCC(C)N(CC)CC(=O)Nc1c(C)cccc1C (stereo not shown) [Compound P, 2-(N-Ethyl-sec. butylamino)-2',6'-acetoxylidide]
Frequency (in words) (rat sciatic nerve; Example 5, STX 2 μg/ml in combinations): poor | Duration, mean ± S.D. (rat sciatic nerve; [9]): 45 min | Frequency (rat sciatic nerve; [9]): 2/6

COC(=O)[C@H]1[C@@H](OC(=O)c2ccccc2)C[C@@H]2CC[C@H]1N2C [cocaine]
Effect on outward potassium current (in words) [1]: reduce | Effect on inward (initial) sodium current (in words) [2]: reduce

CCNCC(=O)Nc1c(C)cccc1C [J, 2-Ethylamino-2',6'-acetoxylidide]
Frequency (rat sciatic nerve; [8]): 6/6

CCCCOc1ccc(OCCCN2CCOCC2)cc1 [Pramoxine, pramoxine]
Anesthetic effect (in words) (rat sciatic nerve; Example 5, STX 2 μg/ml or pramoxine 0.25% alone): no anesthetic effect whatever was observed | Duration, mean ± S.D. (rat sciatic nerve; [10]): 0 min | Frequency (rat sciatic nerve; [10]): 0/5

Cc1cccc(C)c1NC(=O)CN(C)C [H, 2-Dimethylamino-2'-6'-acetoxylidide]
Frequency (rat sciatic nerve; [9]): 5/6 | Duration, mean ± S.D. (rat sciatic nerve; [8]): 76 ± 12 min | Frequency (rat sciatic nerve; [8]): 6/6

CCCCN(C)CC(=O)Nc1c(C)cccc1C [M, 2-(N-Methyl-n-butylamino)-2',6'-acetoxylidide]
Frequency (rat sciatic nerve; [8]): 5/6

CCCOc1ccc(C(=O)CCN2CCCCC2)cc1 [Falicain, falicain]
Duration, mean ± S.D. (rat sciatic nerve; [10]): 94 ± 21 min | Frequency (rat sciatic nerve; [10]): 5/5 | Duration, mean ± S.D. (rat sciatic nerve; local anesthetic alone 0.25%, no vasoconstrictor, listed as falicain): about 94 min.

CCCCOc1cc(C(=O)NCCN(CC)CC)c2ccccc2n1 [Dibucaine, dibucaine]
Duration of complete block, mean ± standard deviation (rat sciatic nerve; [6]): 170 ± 33 min | Frequency of complete block (C) (rat sciatic nerve; [6]): 5/5 | Onset (rat sciatic nerve; [7]): 4 min

CCN(CC)CC(=O)Nc1c(C)cccc1C [Lidocaine, lidocaine]
Duration: mean, Weight Support [3, 11]: 137 min | Duration: range, Weight Support [3, 11]: 108 to 162 min | Duration: mean, Digital Pain [3, 12]: 127 min | Duration: mean, Scrotal Pain [3, 12]: 111 min | Duration: range, Digital Pain [3, 12]: 72 to 162 min | Duration: range, Scrotal Pain [3, 12]: 62 to 152 min | Onset: mean, Digital Pain [3, 12]: 7 min | Onset: mean, Scrotal Pain [3, 12]: 8 min | Onset: mean, Weight Support [3, 12]: 5 min | Onset: range, Digital Pain [3, 12]: 5 to 13 min | Onset: range, Scrotal Pain [3, 12]: 5 to 13 min | Onset: range, Weight Support [3, 12]: 3 to 6 min | Duration (salient points, in words) ([3]; Table III footnote): short | Frequency (salient points, in words) ([3]; Table III footnote): good | Duration of complete block, mean ± standard deviation (rat sciatic nerve; [6]): 141 ± 28 min | Frequency of complete block (C) (rat sciatic nerve; [6]): 5/5 | Onset (rat sciatic nerve; [7]): 1 min

CCCN(CC(=O)Nc1c(C)cccc1C)C(C)(C)CC [Compound C, 2-(N-n-Propyl-tert. amylamino)-2',6'-acetoxylidide]
Duration of block of Scrotal Pain ([3]; C alone 1%, 10 ml, epinephrine 1:100,000, 2 animals): 192 min and 251 min | Duration of block of Digital Pain [4]: 45 to 60 min | Onset time [4]: 5 to 10 min

CCC(C)(C)NCC(=O)Nc1c(C)cccc1C [L, 2-tert. Amylamino-2',6'-acetoxylidide]
Frequency (rat sciatic nerve; [9]): 6/6 | Duration, mean ± S.D. (rat sciatic nerve; [8]): 101 ± 8 min | Frequency (rat sciatic nerve; [8]): 6/6

CCCC(C(=O)Nc1c(C)cccc1C)N(CC)CC (stereo not shown) [T, 2-Diethylamino-2',6'-valeroxylidide]
Duration of block of Digital Pain [3, 13]: 301 (238-365) min. | Duration of block of Scrotal Pain [3, 13]: 202 (185-218) min.

CCCCN1CCCCC1C(=O)Nc1c(C)cccc1C (stereo not shown) [Bupivicaine, bupivacaine]
Duration of block of Digital Pain [3, 13]: 232 to 269 min | Duration of block of Scrotal Pain [3, 13]: 94 min and 139 min | Duration of block of Scrotal Pain ([3]; alone: S 0.75%, T 1%, bupivicaine 0.5%, epinephrine 1:100,000, 5 ml, listed as bupivicaine): about 94 min.

CCCN(CC)C(CC)C(=O)Nc1c(C)cccc1C (stereo not shown) [S, 2-(N-Ethyl-n-propylamino)-2',6'-butyroxylidide]
Duration of block of Digital Pain [3, 13]: 151 (77-256) min. | Duration of block of Scrotal Pain [3, 13]: 128 (82-173) min.
